{"source": "patent US20150305333A1", "about": "“USE OF GLUCOSAMINE AMIDES AS PLANT GROWTH AND YIELD ENHANCERS” (PIONEER HI-BRED INTERNATIONAL, INC., priority 2012, published 2015)", "key": {"[1]": {"system": "Superior potatoes", "assay": "Potato field trial 2011: emergence, flowering, vigor, biomass", "assay_type": "in vivo", "conditions": "for Crop Vigor (1-5 Scale): 3=same as untreated check, 5=visually superior; for Plant Biomass: 117 DAP, above ground", "description": "Seed treatments included an Untreated Control, NPG applied as a seed treatment, and NPG applied as a seed treatment followed by two foliar applications. Aqueous solutions of NPG were applied at a 10^−7 M concentration to seed pieces using a spray nozzle and left to soak on a plastic sheet for 20 min.\nFoliar NPG applications were performed 36 and 45 days after planting. Plants were sprayed using a four-nozzle hollow-cone boom containing ceramic disks and CO2 propellant at a speed of 4.5 km/h and 40 psi. The 36 day application utilized a 2.0 L mix size and spray rate of 200 L/ha water volume. The 45 day application utilized a 3.0 L mix size and spray rate of 300 L/ha water volume. Seeds pieces designated for use as the Untreated Control also received the fungicide maintenance treatment.\nThe seed pieces were beginning to sprout when planted on June 8th in a loam composed of 34% sand, 48% silt and 18% clay and 2.9% organic matter.\nPotatoes were planted at a rate of 25,000 seed pieces/ha to a depth of 20 cm and hilled using a tractor mounted potato hiller. Weeds were controlled using 3 L/ha of 40.6 wt % linuron. Insects were controlled using 250 ml/ha 18.4 wt % chlorantraniliprole and 80 g/ha 70 wt % acetamiprid insecticides. Disease was controlled using a tank mix of 1.6 kg/ha 75 wt % mancozeb M and 225 g/ha 60 wt % cymoxanil fungicides. Before harvest, plants were sprayed twice (seven days apart) with 39.5 wt % diquat dibromide herbicide at a rate of 2 L/ha. All of the products are industry standards and representative of what is used in commercial production.\nThe trial was conducted using a randomized complete block design with a plot size of 2 m by 8 m with a 100 cm row spacing, 30 cm plant spacing and four replications. Due to wet weather, the soil was damp and cloddy during the planting and hilling process.\nTreatments were compared on a “Vigor Scale” of 1 to 5 as follows:\nPotato Plant Biomass was determined at 117 DAP by harvesting five plants above ground level from each plot (Table 7)."}, "[2]": {"system": "soybean seeds", "assay": "Petri dish seed germination assay, soybean", "assay_type": "in vivo", "description": "A series of Petri dish seed assays was conducted to evaluate the effects NPG on the seed germination rates of corn, soybean, and canola seeds subjected to cold stress, salt stress and non-stressed conditions (salt stress only for canola). Assays were performed with ten replications of ten seeds/plate (100 total seeds). NPG was applied to seeds at the specified concentrations prior to being placed in Petri plates. Seeds designated for Salt Stress Experiments 1 & 2 were placed in Petri dishes containing a 100 mM NaCl solution and incubated at 21° C.-22° C. in the dark. Cold stress Petri dishes were incubated at 15° C. in the dark. Untreated Controls were incubated at 21° C.-22° C. in the dark as were seeds utilized in the separately conducted non-stressed germination assays. Data was recorded as percent germination at designated times after plating. Statistical analyses were performed using one-way Anova and Kruskal-Wallis one-way analysis of variance on rank combined with Dunn's all pairwise multiple comparison procedure (α=0.05)."}, "[3]": {"conditions": "10^−7M seed treatment + Foliar, 20 DAP"}, "[4]": {"conditions": "10^−7M seed treatment + Foliar, 28 DAP"}, "[5]": {"conditions": "10^−7M seed treatment + Foliar, 40 DAP"}}}
{"smiles": "CCCCCCC=CCCCCCCCC(=O)NC1C(OC)OC(CO)C(O)C1O", "note": "[NPG, Methyl 2-deoxy-2-N-(hexadece-9,10-cis-eneoyl)-β-D-glucopyranoside]", "values": [{"measurement": "Potato Emergence", "setting": "[1]; [3]", "value": 36, "unit": "a %"}, {"measurement": "Crop Vigor (1-5 Scale)", "setting": "[1]; [3]", "value": 4.6, "unit": "b"}, {"measurement": "Potato Emergence", "setting": "[1]; [4]", "value": 38, "unit": "a %"}, {"measurement": "Crop Vigor (1-5 Scale)", "setting": "[1]; [4]", "value": 3.9, "unit": "a"}, {"measurement": "Potato Flowering", "setting": "[1]; [5]", "value": 22, "unit": "b %"}, {"measurement": "Crop Vigor (1-5 Scale)", "setting": "[1]; [5]", "value": 3.6, "unit": "a"}, {"measurement": "Crop Vigor (1-5 Scale)", "setting": "[1]; 10^−7M seed treatment + Foliar, 49 DAP", "value": 4.1, "unit": "c"}, {"measurement": "Plant Biomass", "setting": "[1]; 10^−7M seed treatment + Foliar", "value": 2.56, "unit": "a kg/5 Plants"}, {"measurement": "Potato Emergence", "setting": "[1]; 10^−7M seed treatment, 20 DAP", "value": 30, "unit": "a %"}, {"measurement": "Crop Vigor (1-5 Scale)", "setting": "[1]; 10^−7M seed treatment, 20 DAP", "value": 2.9, "unit": "a"}, {"measurement": "Potato Emergence", "setting": "[1]; 10^−7M seed treatment, 28 DAP", "value": 39, "unit": "a %"}, {"measurement": "Crop Vigor (1-5 Scale)", "setting": "[1]; 10^−7M seed treatment, 28 DAP", "value": 2.9, "unit": "a"}, {"measurement": "Potato Flowering", "setting": "[1]; 10^−7M seed treatment, 40 DAP", "value": 0.0, "unit": "a %"}, {"measurement": "Crop Vigor (1-5 Scale)", "setting": "[1]; 10^−7M seed treatment, 40 DAP", "value": 3.1, "unit": "a"}, {"measurement": "Crop Vigor (1-5 Scale)", "setting": "[1]; 10^−7M seed treatment, 49 DAP", "value": 3.5, "unit": "b"}, {"measurement": "Plant Biomass", "setting": "[1]; 10^−7M seed treatment", "value": 2.35, "unit": "a kg/5 Plants"}, {"measurement": "Soybean Seed Germination", "setting": "[2]; Cold Stress (15° C.), 10^−6M × 4 Times, 30 HAP", "value": 29, "unit": "a %"}, {"measurement": "Soybean Seed Germination", "setting": "[2]; Cold Stress (15° C.), 10^−6M × 4 Times, 36 HAP", "value": 58, "unit": "a %"}, {"measurement": "Soybean Seed Germination", "setting": "[2]; Cold Stress (15° C.), 10^−6M × 4 Times, 44 HAP", "value": 81, "unit": "a %"}, {"measurement": "Soybean Seed Germination", "setting": "[2]; Cold Stress (15° C.), 10^−6M × 4 Times, 50 HAP", "value": 90, "unit": "a %"}, {"measurement": "Soybean Seed Germination", "setting": "[2]; Cold Stress (15° C.), 10^−6M × 4 Times, 60 HAP", "value": 97, "unit": "a %"}, {"measurement": "Soybean Seed Germination", "setting": "[2]; Cold Stress (15° C.), 10^−6M, 30 HAP", "value": 26, "unit": "a %"}, {"measurement": "Soybean Seed Germination", "setting": "[2]; Cold Stress (15° C.), 10^−6M, 36 HAP", "value": 58, "unit": "a %"}, {"measurement": "Soybean Seed Germination", "setting": "[2]; Cold Stress (15° C.), 10^−6M, 44 HAP", "value": 80, "unit": "a %"}, {"measurement": "Soybean Seed Germination", "setting": "[2]; Cold Stress (15° C.), 10^−6M, 50 HAP", "value": 90, "unit": "a %"}, {"measurement": "Soybean Seed Germination", "setting": "[2]; Cold Stress (15° C.), 10^−6M, 60 HAP", "value": 96, "unit": "a %"}, {"measurement": "Soybean Seed Germination", "setting": "[2]; Cold Stress (15° C.), 10^−7M, 30 HAP", "value": 23, "unit": "a %"}, {"measurement": "Soybean Seed Germination", "setting": "[2]; Cold Stress (15° C.), 10^−7M, 36 HAP", "value": 51, "unit": "a %"}, {"measurement": "Soybean Seed Germination", "setting": "[2]; Cold Stress (15° C.), 10^−7M, 44 HAP", "value": 84, "unit": "a %"}, {"measurement": "Soybean Seed Germination", "setting": "[2]; Cold Stress (15° C.), 10^−7M, 50 HAP", "value": 91, "unit": "a %"}, {"measurement": "Soybean Seed Germination", "setting": "[2]; Cold Stress (15° C.), 10^−7M, 60 HAP", "value": 95, "unit": "a %"}, {"measurement": "Soybean Seed Germination", "setting": "[2]; Non-Stressed, 10^−6M × 4 Times, 27 HAP", "value": 72, "unit": "a %"}, {"measurement": "Soybean Seed Germination", "setting": "[2]; Non-Stressed, 10^−6M × 4 Times, 34 HAP", "value": 88, "unit": "a %"}, {"measurement": "Soybean Seed Germination", "setting": "[2]; Non-Stressed, 10^−6M × 4 Times, 45 HAP", "value": 94, "unit": "a %"}, {"measurement": "Soybean Seed Germination", "setting": "[2]; Non-Stressed, 10^−6M, 27 HAP", "value": 70, "unit": "a %"}, {"measurement": "Soybean Seed Germination", "setting": "[2]; Non-Stressed, 10^−6M, 34 HAP", "value": 93, "unit": "a %"}, {"measurement": "Soybean Seed Germination", "setting": "[2]; Non-Stressed, 10^−6M, 45 HAP", "value": 97, "unit": "a %"}, {"measurement": "Soybean Seed Germination", "setting": "[2]; Salt Stress (100 mM NaCl), 10^−6M × 4 Times, 27 HAP", "value": 17, "unit": "a %"}, {"measurement": "Soybean Seed Germination", "setting": "[2]; Salt Stress (100 mM NaCl), 10^−6M × 4 Times, 34 HAP", "value": 76, "unit": "ab %"}, {"measurement": "Soybean Seed Germination", "setting": "[2]; Salt Stress (100 mM NaCl), 10^−6M × 4 Times, 45 HAP", "value": 89, "unit": "ab %"}, {"measurement": "Soybean Seed Germination", "setting": "[2]; Salt Stress (100 mM NaCl), 10^−6M × 4 Times, 55 HAP", "value": 96, "unit": "a %"}, {"measurement": "Soybean Seed Germination", "setting": "[2]; Salt Stress (100 mM NaCl), 10^−6M × 4 Times, 65 HAP", "value": 99, "unit": "a %"}, {"measurement": "Soybean Seed Germination", "setting": "[2]; Salt Stress (100 mM NaCl), 10^−6M, 27 HAP", "value": 22, "unit": "a %"}, {"measurement": "Soybean Seed Germination", "setting": "[2]; Salt Stress (100 mM NaCl), 10^−6M, 34 HAP", "value": 73, "unit": "ab %"}, {"measurement": "Soybean Seed Germination", "setting": "[2]; Salt Stress (100 mM NaCl), 10^−6M, 45 HAP", "value": 83, "unit": "ab %"}, {"measurement": "Soybean Seed Germination", "setting": "[2]; Salt Stress (100 mM NaCl), 10^−6M, 55 HAP", "value": 95, "unit": "a %"}, {"measurement": "Soybean Seed Germination", "setting": "[2]; Salt Stress (100 mM NaCl), 10^−6M, 65 HAP", "value": 99, "unit": "a %"}]}
